According to patent US6855730B2, “3-methylidenyl-2-indolinone modulators of protein kinase” (Sugen, Inc., priority 1998, dated 2005):

Key:
SKOV3 cells = experiment: SKOV3 growth assay (2% FBS); type: cell-based; settings: Homo sapiens, SK-OV-3, read-out: SKOV3 growth (2% FBS) IC50
A431 cells = experiment: A431 growth assay (2% FBS); type: cell-based; settings: Homo sapiens, A-431, read-out: A431 growth (2% FBS) IC50
EGFR = EGFR (Homo sapiens, UniProt P00533); experiment: Biochemical EGFR assay (ELISA, A431 cell lysate); set-up: A431 cell lysate (Screening Lab, SUGEN, Inc.); host or cells: A431; settings: read-out: bio EGFr IC50
Method in brief: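 EGFR captured from A431 cell lysate onto anti-EGFR-coated plates, then incubated with test compound for 30 min at room temperature. Tyrosine phosphorylation with ATP/MnCl2 was stopped with EDTA after 5 min and detected by anti-phosphotyrosine ELISA with peroxidase/ABTS read-out.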

Chain of EGFR (P00533 25-1210): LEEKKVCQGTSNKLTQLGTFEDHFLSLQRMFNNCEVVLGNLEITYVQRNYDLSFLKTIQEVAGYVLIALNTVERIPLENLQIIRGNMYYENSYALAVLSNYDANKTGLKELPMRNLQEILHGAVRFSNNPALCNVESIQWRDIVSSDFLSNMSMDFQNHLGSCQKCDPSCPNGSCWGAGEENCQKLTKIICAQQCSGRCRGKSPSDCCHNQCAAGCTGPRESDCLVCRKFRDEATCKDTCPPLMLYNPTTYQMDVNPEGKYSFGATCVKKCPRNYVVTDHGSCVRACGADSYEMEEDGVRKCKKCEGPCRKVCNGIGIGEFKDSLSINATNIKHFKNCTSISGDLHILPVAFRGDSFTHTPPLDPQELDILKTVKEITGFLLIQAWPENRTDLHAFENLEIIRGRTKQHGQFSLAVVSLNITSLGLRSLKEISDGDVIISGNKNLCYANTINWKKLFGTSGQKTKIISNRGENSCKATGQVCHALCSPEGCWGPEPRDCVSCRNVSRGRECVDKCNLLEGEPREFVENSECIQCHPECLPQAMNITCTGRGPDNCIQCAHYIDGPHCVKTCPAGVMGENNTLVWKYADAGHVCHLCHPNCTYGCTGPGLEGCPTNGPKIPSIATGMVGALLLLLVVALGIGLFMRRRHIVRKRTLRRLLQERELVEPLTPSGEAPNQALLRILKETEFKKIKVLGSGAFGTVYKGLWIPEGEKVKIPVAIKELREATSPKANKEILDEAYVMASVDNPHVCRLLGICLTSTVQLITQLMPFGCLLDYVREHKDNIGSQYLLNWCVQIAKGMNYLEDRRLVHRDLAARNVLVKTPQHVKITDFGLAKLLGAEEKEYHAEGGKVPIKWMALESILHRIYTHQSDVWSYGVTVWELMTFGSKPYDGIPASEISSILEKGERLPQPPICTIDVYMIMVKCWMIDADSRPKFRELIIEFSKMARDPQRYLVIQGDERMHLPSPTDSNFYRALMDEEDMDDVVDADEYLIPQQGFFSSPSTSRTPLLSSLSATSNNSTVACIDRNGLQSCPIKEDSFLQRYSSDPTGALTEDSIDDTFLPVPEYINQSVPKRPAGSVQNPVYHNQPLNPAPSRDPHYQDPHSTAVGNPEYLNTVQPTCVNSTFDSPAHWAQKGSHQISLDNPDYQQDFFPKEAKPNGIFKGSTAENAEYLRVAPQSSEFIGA

| IC50 (SKOV3 cells) | IC50 (A431 cells) | IC50 (EGFR) | SMILES |
| --- | --- | --- | --- |
| 4 µM | 5.8 µM | > 100 µM | CC(C)c1cc(/C=C2/C(=O)Nc3ccc(Br)cc32)cc(C(C)C)c1OCCN1CCOCC1 [Example 57, 5-Bromo-3-[3,5-diisopropyl-4-(2-morpholin-4-ylethoxy)benzylidene]-1,3-dihydroindol-2-one] |
| 16.2 µM | 13.4 µM | > 100 µM | COc1ccc(/C=C2/C(=O)Nc3ccccc32)cc1-c1ccsc1 [Example 35, 3-(4-Methoxy-3-thiophen-3-ylbenzylidene)-1,3-dihydroindol-2-one] |
| 5.1 µM | 6.4 µM | > 100 µM | COc1cc(C)c(C=C2C(=O)Nc3cc(NC(C)=O)ccc32)cc1C(C)C [Example 27, N-[3-(5-Isopropyl-4-methoxy-2-methyl-benzylidene)-2-oxo-2,3-dihydro-1H-indol-6-yl]-acetamide] |
| 22.5 µM | 14.2 µM | > 100 µM | CC(=O)Nc1ccc2c(c1)NC(=O)/C2=C/c1ccc(OCCN2CCOCC2)c(-c2cccs2)c1 [Example 40, N-{3-[4-(2-Morpholin-4-ylethoxy)-3-thiophen-2-ylbenzylidene]-2-oxo-2,3-dihydro-1H-indol-6-yl}-acetamide] |
